Data from US20090060928A1, “Topical Toll Like Receptor Ligands as Vaccine Adjuvants” (priority 2006, published 2009).

Columns and labels:
anti-OVA IgG antibodies = experiment: Anti-OVA antibodies in serum by ELISA after sc OVA immunization with adjuvant; assay type: in vivo, C57BI/6 mice
Description: Fig. A: Groups of mice were immunized to OVA alone or followed by topical application of imiquimod to the site of immunization 3×/wk. or to OVA in ILK-2 liposomes. One week following 4 weekly immunizations, sera was collected and tested for anti-OVA IgG antibodies by ELISA. Anti-OVA IgG responses was greater in mice treated with imiquimod than in those immunized to OVA alone. It was as strong as that induced by IL-2 liposomes as the adjuvant. Fig. B: One week following 4 weekly immunizations, IgG1, IgG2a, IgG2b, and IgG3 anti-OVA antibodies was measured in these groups by ELISA, using subclass specific antibodies as probes.
(§1) FIG. 3A: Groups of mice were immunized to OVA alone or followed by topical application of imiquimod to the site of immunization 1×/wk. or to a site distal to the immunization. One week following 4 weekly immunizations, sera was collected and tested for anti-OVA IgG subclass antibodies by ELISA. Anti-OVA IgG responses was greater in mice treated with imiquimod both locally and distally than in those immunized to OVA alone. FIG. 3B: Triplicate mice were sacrificed 1 week after 4 immunizations and cellular immune responses to OVA-expressing target E.G7-OVA cells determined by ELIspot assay
(§2) In more detail, groups of 10 C57BI/6 mice were immunized sc weekly×4 to 0.1 mg of ovalbumin (OVA). Some groups were in addition treated with 5% imiquimod cream applied topically to the immunization site once or 3×/week. Control groups were immunized to PBS, to OVA encapsulated into IL-2 liposomes (which we have previously shown is one of the strongest adjvuanrts available), or to irradiated E.G7-OVA cells (a powerful stimulator of anti-OVA T-cell responses). Serum was collected from each mouse at baseline and following the 4th immunization, pooled by immunization group, and assayed for antibodies to OVA by ELISA.
In these experiments, groups of […] mice were immunized sc weekly×4 to 0.1 mg of ovalbumin (OVA) given in 0.1 ml of PBS injected in the lower abdominal region. One group of mice was also treated with 5% imiquimod applied topically to the skin at a site distal (in the nape of the neck) to the immunization site 1×/week.

E.G7-OVA cells = experiment: ELISPOT (gamma-interferon release) of spleen cells for T-cell response to OVA positive target cells; assay type: in vivo, C57BI/6 mice; conditions: for cellular response to OVA by ELISPOT: FIG. 3B; for T-cell (cellular) response by ELISPOT: FIG. 2A
Description: FIG. 1A: Mice were immunized to OVA with or without topical application of imiquimod treatment 1× or 3×/wk following each immunization. Spleen cells were collected from each group 1 week following 4 immunizations, and tested by ELISPOT (based on gamma-interferon release) for T-cell response to OVA positive target cells (E.G7-OVA). FIG. 2B Mice were immunized to OVA with topical application of imiquimod 3×/week or with OVA encapsulated into IL-2 liposomes. Imiquimod boosted T-cell responses more strongly than IL-2 liposomes.
as §1, §2
Imiquimod boosted in particular Ig2a and IgG2b responses which were almost undetectable in mice immunized to OVA alone (see FIG. 1 B). This is consistent with the known capacity of this agent to preferentially boost Th1 responses. […] No T-cell responses were detectable in mice immunized similarly to OVA alone.
By contrast, no significant T-cell responses above PBS controls were detectable in mice immunized similarly to OVA alone. We have not studied the adjuvant activity of other TLR receptor ligands such as resiquimod and CpG ODN applied topically away from the immunization site. […] Thus, it is reasonable to expect that all of these will also retain adjuvant activity when applied topically directly over, or away, from the immunization site. Because their specific mechanism of action differs from that of imiquimod, they may have stronger adjuvant activity or may be better able to enhance specific type of immune responses than imiquimod. Combinations of TLR ligands may be able to enhance stronger or broader type of immune response than any one individual TLR ligand alone. This invention is intended to cover these different possibilities.

OVA positive tumor cells = experiment: Vaccine-induced tumor protective immunity against lethal challenge; assay type: in vivo, mice; conditions: 5% cream topically over site of sc OVA immunization
Description: Importantly, the potency of imiquimod was as great as that of the strongest adjuvant we have studied to date in mice but with less local toxicity.

[1] = Local toxicity of the adjuvant; assay type: in vivo; conditions: adjuvant with sc OVA immunization
[2] = topical imiquimod at immunization site, vs OVA only, FIG. 1B

Compound: CC(C)Cn1cnc2c(N)nc3ccccc3c21 [imiquimod]
- overall IgG anti-OVA antibody response (anti-OVA IgG antibodies; OVA 0.1 mg sc weekly x4 + topical imiquimod at immunization site 3x/wk, vs OVA alone, FIG. 1A): considerably greater
- IgG2a titer, times stronger than OVA alone (anti-OVA IgG antibodies; distal imiquimod treatment): 25 times
- IgG2b titer, stronger than OVA alone (anti-OVA IgG antibodies; distal imiquimod treatment): 125
- IgG2a titer, times stronger than OVA alone (anti-OVA IgG antibodies; local imiquimod treatment): 125 times
- IgG2b titer, stronger than OVA alone (anti-OVA IgG antibodies; local imiquimod treatment): 125
- IgG1 anti-OVA antibody response (anti-OVA IgG antibodies; [2]): reduced
- IgG2a anti-OVA antibody response (anti-OVA IgG antibodies; [2]): markedly boosted
- IgG2b anti-OVA antibody response (anti-OVA IgG antibodies; [2]): markedly boosted
- anti-OVA IgG subclass response (anti-OVA IgG antibodies; topical imiquimod both local and distal to vaccine injection site, vs OVA alone, FIG. 3A): considerably greater
- cellular response to OVA by ELISPOT (E.G7-OVA cells; distal application of imiquimod): strong cellular responses
- T-cell (cellular) response by ELISPOT (E.G7-OVA cells; imiquimod applied to immunization site 1x/wk following each immunization): slight response
- T-cell (cellular) response by ELISPOT (E.G7-OVA cells; imiquimod applied to immunization site 3x/week): very strong response
- cellular response to OVA by ELISPOT (E.G7-OVA cells; local application of imiquimod): strong cellular responses
- T-cell response compared with IL-2 liposomes (E.G7-OVA cells; topical imiquimod 3x/week vs OVA in IL-2 liposomes, FIG. 2B): more potent stimulator of T-cell responses than IL-2 liposomes
- vaccine-induced tumor protective immunity (OVA positive tumor cells): markedly increased
- local toxicity [1]: no toxicity at all
